Measurements as given in PubChem BioAssay (NCI).
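48-hour exposure; five concentrations; linearly interpolated endpoints. GI50: concentration for 50% inhibition of growth. TGI is the concentration that stops growth completely.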

What was measured:
Test in all cases: NCI anticancer screen, dose series, 48 h
[1] = system: RXF 393 renal
[2] = system: SW-620 colon
[3] = system: A498 renal
[4] = system: SNB-75 CNS
[5] = system: SK-MEL-28 melanoma
[6] = system: IGROV1 ovarian
[7] = system: MDA-MB-231 breast
[8] = system: PC-3 prostate
[9] = system: SK-MEL-2 melanoma
[10] = system: CCRF-CEM leukemia

Row | SMILES | TGI [1] | TGI [2] | TGI [3] | TGI [4] | TGI [5] | TGI [6] | GI50 [7] | TGI [7] | GI50 [2] | GI50 [3] | GI50 [8] | TGI [8] | GI50 [9] | TGI [9] | GI50 [4] | GI50 [5] | GI50 [10] | TGI [10] | GI50 [6] | GI50 [1]
1 | O=C(O)CCSC(=S)Nc1cccc(F)c1 | 99.2 µM | > 100 µM | 77.7 µM | > 100 µM | 83.1 µM | 80.9 µM | – | – | – | – | – | – | – | – | – | – | – | – | – | –
2 | Cc1cn2c(/C=C3/C(=O)Nc4ccc(F)cc43)c(C)nc2s1 | – | > 50 µM | 25.8 µM | 15.6 µM | > 50 µM | 25 µM | 12.1 µM | > 50 µM | 3.18 µM | 9.59 µM | 9.51 µM | > 50 µM | 8.76 µM | > 50 µM | 3.76 µM | 4.11 µM | 14.8 µM | > 50 µM | 2.14 µM | –
3 | C=C1NC(=O)C(CC(C(=O)C(=O)Nc2c(C)cccc2C(C)(C)C)C(=O)c2ccc3ccccc3c2)C(=O)N1 (stereo not given) | > 100 µM | > 100 µM | > 100 µM | > 100 µM | > 100 µM | – | – | > 100 µM | – | – | – | > 100 µM | – | > 100 µM | – | – | – | > 100 µM | – | –
4 | Cc1ccc(NC(=O)CC/C(CC(=O)C(C)(C)C)=N\Nc2ccc([N+](=O)[O-])cc2[N+](=O)[O-])cc1C | > 100 µM | > 100 µM | – | – | > 100 µM | > 100 µM | – | – | – | – | – | – | – | > 100 µM | – | – | – | 98 µM | – | –
5 | O=C(NNC(=S)Nc1ccccc1)c1ccccn1 | – | > 100 µM | > 100 µM | > 100 µM | > 100 µM | > 100 µM | 3.85 µM | > 100 µM | 4.54 µM | 4.55 µM | 2.87 µM | > 100 µM | 9.74 µM | > 100 µM | 5.97 µM | 2.8 µM | 2.18 µM | 25.3 µM | 3 µM | –
6 | COc1cc(CC(C(=O)O)C(=O)O)c(OC)cc1CC(C(=O)O)C(=O)O | > 100 µM | > 100 µM | > 100 µM | > 100 µM | – | > 100 µM | – | – | – | – | – | – | – | – | – | – | – | > 100 µM | – | –
7 | COc1cc2c(cc1OC)c1c(OC)c(OC)cc3c1c1c2sc(=S)n1CC3 | > 100 µM | > 100 µM | > 100 µM | > 100 µM | > 100 µM | > 100 µM | – | – | – | – | – | – | – | > 100 µM | – | – | – | > 100 µM | – | –
8 | CC(CCCC1SCC2NC(=O)NC21)C(=O)O (stereo not given) | > 100 µM | > 100 µM | > 100 µM | > 100 µM | > 100 µM | > 100 µM | – | > 100 µM | – | – | – | > 100 µM | – | > 100 µM | – | – | – | – | – | –
9 | CC1=NN(C(=O)c2ccc(Cl)cc2)C(=O)/C1=C/c1ccco1 | > 100 µM | > 100 µM | > 100 µM | – | > 100 µM | > 100 µM | – | – | – | – | – | – | – | > 100 µM | – | – | – | > 100 µM | – | –
10 | CC1=C2[C@H](c3ccccc3)C3C=CC2(c2ccccc23)N(C(=O)C(c2ccccc2)c2ccccc2)C1=O (stereo not given in full) | > 100 µM | > 100 µM | > 100 µM | > 100 µM | > 100 µM | > 100 µM | – | – | – | – | – | – | – | – | – | – | – | > 100 µM | – | –
11 | COC(=O)C(C(=O)C(=O)Nc1ccc(OC)cc1[N+](=O)[O-])c1nc2cc(C)c(C)cc2[nH]c1=O (stereo not given) | > 100 µM | > 100 µM | > 100 µM | > 100 µM | > 100 µM | > 100 µM | – | – | – | – | – | – | – | – | – | – | – | > 100 µM | – | –
12 | C=C1C(=O)OC2CC3(C)CCCC(C)C3=CC12 (stereo not given) | – | 6.13 µM | 18.7 µM | 11.2 µM | 12.2 µM | 22.4 µM | – | 26.9 µM | – | – | – | 39.2 µM | – | 28.5 µM | – | – | – | 4.53 µM | – | –
13 | COc1ccc(CNc2cnc3cc(N)cc(N)c3n2)cc1 | 49.8 µM | 50.4 µM | – | > 100 µM | > 100 µM | 29 µM | 14.2 µM | 29.6 µM | 23.5 µM | – | 34.2 µM | > 100 µM | 23.9 µM | 76.3 µM | 42.8 µM | 58 µM | 24.1 µM | > 100 µM | 11.2 µM | 22.3 µM
14 | COc1cc(/C=C\c2ccc(OC(C)=O)cc2)cc(OC)c1OC | – | > 100 µM | 78.4 µM | 6.93 µM | 7.67 µM | > 100 µM | – | – | – | – | – | – | – | > 100 µM | – | – | – | > 100 µM | – | –
15 | Nc1ccc2c(c1)Oc1c(F)c(F)cc3c(=O)c(C(=O)O)cn-2c13 | > 100 µM | > 100 µM | 49.7 µM | – | > 100 µM | > 100 µM | – | – | – | – | – | – | – | > 100 µM | – | – | – | > 100 µM | – | –
16 | CC(=O)O/N=C(Cl)/C(Cl)=N/OC(C)=O | > 100 µM | > 100 µM | > 100 µM | > 100 µM | > 100 µM | > 100 µM | – | – | – | – | – | – | – | > 100 µM | – | – | – | > 100 µM | – | –
17 | Cc1nc(Nc2ccccc2)sc1C(=O)CC(=O)C(=O)NC12CC3CC(CC(C3)C1)C2 | > 100 µM | > 100 µM | – | > 100 µM | > 100 µM | > 100 µM | – | – | – | – | – | – | – | > 100 µM | – | – | – | > 100 µM | – | –
18 | COc1ccc(/C=c2/sc3n(c2=O)NC(c2ccc(Cl)cc2)NN=3)cc1 (stereo not given) | > 100 µM | > 100 µM | – | 78.1 µM | > 100 µM | > 100 µM | – | – | – | – | – | – | – | > 100 µM | – | – | – | > 100 µM | – | –
19 | CCCCCCN(C)Cc1ccc(OCCOc2ccc(CN(C)CCCCCC)cc2)cc1 | 2.15 µM | 3.13 µM | 3.17 µM | 2.57 µM | 2.88 µM | 3.13 µM | 1.22 µM | 2.84 µM | 1.48 µM | 1.24 µM | 1.24 µM | 2.8 µM | 1.61 µM | 3.08 µM | 1.2 µM | 1.45 µM | – | – | 1.33 µM | 0.834 µM
20 | CCOC(=O)NC(=O)c1cn(CCN2CCNCC2)c(=O)[nH]c1=O | > 100 µM | > 100 µM | – | – | > 100 µM | > 100 µM | – | – | – | – | – | – | – | > 100 µM | – | – | – | > 100 µM | – | –
21 | Cc1c(C2Cc3ccccc3N2)c2ccccc2n1C (stereo not given) | > 100 µM | > 100 µM | > 100 µM | > 100 µM | – | > 100 µM | – | – | – | – | – | – | – | > 100 µM | – | – | – | > 100 µM | – | –
